Patent US20190152992A1, “BENZODIOXANE DERIVATIVES AND THEIR PHARMACEUTICAL USE” (Orion Corporation, priority 2016, published 2019)
Counter-ions that a name gives are not always drawn.

What was measured:
human alpha2A receptors = biological target: T1, human alpha2A receptors (Homo sapiens, UniProt P08913); test: cell-based
T1 sequence (P08913 1-465): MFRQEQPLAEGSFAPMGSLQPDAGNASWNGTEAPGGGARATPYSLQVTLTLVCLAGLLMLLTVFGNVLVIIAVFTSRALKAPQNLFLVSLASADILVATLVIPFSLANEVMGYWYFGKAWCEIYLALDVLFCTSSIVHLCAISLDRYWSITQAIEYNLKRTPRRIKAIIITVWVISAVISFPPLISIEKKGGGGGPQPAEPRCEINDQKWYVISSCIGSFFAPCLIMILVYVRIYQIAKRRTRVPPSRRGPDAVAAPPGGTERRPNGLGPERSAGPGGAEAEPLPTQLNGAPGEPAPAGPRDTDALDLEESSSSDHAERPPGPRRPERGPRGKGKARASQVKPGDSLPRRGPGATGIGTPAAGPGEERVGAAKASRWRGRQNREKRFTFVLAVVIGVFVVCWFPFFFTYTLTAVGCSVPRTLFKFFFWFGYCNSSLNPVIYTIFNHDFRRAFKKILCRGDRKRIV

human alpha2C receptors = biological target: T2, human alpha2C receptors (Homo sapiens, UniProt P18825); test: Determination of alpha2C antagonistic activity in vitro (FLIPR calcium assay); conditions: for Kb: Alpha 2C Adrenaline Kb, Kb calculated from IC50 with the Cheng-Prusoff equation, adrenaline as agonist, CHO cells, human alpha2C
T2 sequence (P18825 1-462): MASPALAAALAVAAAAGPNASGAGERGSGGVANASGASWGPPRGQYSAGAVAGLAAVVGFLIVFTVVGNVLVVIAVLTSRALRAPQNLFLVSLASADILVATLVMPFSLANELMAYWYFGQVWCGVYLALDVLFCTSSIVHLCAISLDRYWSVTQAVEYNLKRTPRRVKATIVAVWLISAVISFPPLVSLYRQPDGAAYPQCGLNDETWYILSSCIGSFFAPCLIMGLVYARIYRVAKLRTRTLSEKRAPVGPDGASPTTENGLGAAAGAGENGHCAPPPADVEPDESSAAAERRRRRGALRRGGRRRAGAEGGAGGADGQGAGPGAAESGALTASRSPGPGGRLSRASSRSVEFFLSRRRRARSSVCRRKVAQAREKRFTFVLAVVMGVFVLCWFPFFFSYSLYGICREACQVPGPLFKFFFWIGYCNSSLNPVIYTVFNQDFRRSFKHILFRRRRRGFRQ

Row | Compound | IC50 (human alpha2A receptors) | Kb (human alpha2A receptors) | IC50 (human alpha2C receptors) | Kb (human alpha2C receptors)
1 | Cc1nc2ccc(Cl)cc2n1[C@H]1CCCN(C[C@H]2COc3ccccc3O2)C1 [example 90, 6-Chloro-1-((S)-1-(((S)-2,3-dihydrobenzo[b][1,4]dioxin-2-yl)methyl)piperidin-3-yl)-2-methyl-1H-benzo[d]imidazole] | 11.1 µM | 498 nM | < 0.1 nM | < 0.01 nM
2 | O=c1[nH]c2cc(F)ccc2n1[C@H]1CCCN(C[C@H]2COc3ccccc3O2)C1 [example 88, 1-((S)-1-(((S)-2,3-Dihydrobenzo[b][1,4]dioxin-2-yl)methyl)piperidin-3-yl)-5-fluoro-1H-benzo[d]imidazol-2(3H)-one] | > 10 µM | > 449 nM | < 0.1 nM | < 0.01 nM
3 | O=C1c2ncsc2CN1[C@H]1CCCN(C[C@H]2COc3ccccc3O2)C1 [example 13, 5-((S)-1-(((S)-2,3-Dihydrobenzo[b][1,4]dioxin-2-yl)methyl)piperidin-3-yl)-5,6-dihydro-4H-pyrrolo[3,4-d]thiazol-4-one] | > 10 µM | > 449 nM | 22.4 nM | 2.26 nM
4 | O=C1C2CCCC2C(=O)N1[C@H]1CCCN(C[C@H]2COc3ccccc3O2)C1 (stereo partly drawn) [example 92, 2-((S)-1-(((S)-2,3-Dihydrobenzo[b][1,4]dioxin-2-yl)methyl)piperidin-3-yl)tetrahydrocyclopenta[c]pyrrole-1,3(2H,3aH)-dione hydrochloride] | > 10 µM | > 449 nM | 0.15 nM | 0.02 nM
5 | CNCc1nc2ccc(Cl)cc2n1[C@H]1CCCN(C[C@H]2COc3ccccc3O2)C1 [example 153, 1-(6-Chloro-1-((S)-1-(((S)-2,3-dihydrobenzo[b][1,4]dioxin-2-yl)methyl)piperidin-3-yl)-1H-benzo[d]imidazol-2-yl)-N-methylmethanamine] | > 10 µM | > 449 nM | 3580 nM | 361 nM
6 | CC1(C)CCN([C@H]2CCCN(C[C@H]3COc4ccccc4O3)C2)S1(=O)=O [example 162, 2-((S)-1-(((S)-2,3-Dihydrobenzo[b][1,4]dioxin-2-yl)methyl)piperidin-3-yl)-5,5-dimethylisothiazolidine 1,1-dioxide] | > 10 µM | > 449 nM | 6.13 nM | 0.62 nM
7 | O=C1c2cccc(F)c2C(=O)N1[C@H]1CCCN(C[C@H]2COc3ccccc3O2)C1 [example 63, 2-((S)-1-(((S)-2,3-Dihydrobenzo[b][1,4]dioxin-2-yl)methyl)piperidin-3-yl)-4-fluoroisoindoline-1,3-dione hydrochloride] | > 10 µM | > 449 nM | < 0.1 nM | < 0.01 nM
8 | O=C1CN(Cc2ccccc2)C(=O)N1[C@H]1CCCN(C[C@H]2COc3ccccc3O2)C1 [example 118, 1-Benzyl-3-((S)-1-(((S)-2,3-dihydrobenzo[b][1,4]dioxin-2-yl)methyl)-piperidin-3-yl)imidazolidine-2,4-dione] | 1.12 µM | 50 nM | < 0.1 nM | < 0.01 nM
9 | Cc1nc2ccc(F)cc2n1[C@H]1CCCN(C[C@H]2COc3ccccc3O2)C1 [example 83, 1-((S)-1-(((S)-2,3-Dihydrobenzo[b][1,4]dioxin-2-yl)methyl)piperidin-3-yl)-6-fluoro-2-methyl-1H-benzo[d]imidazole] | > 10 µM | > 449 nM | < 0.1 nM | < 0.01 nM
10 | CSc1ncc2c(n1)CN([C@H]1CCCN(C[C@H]3COc4ccccc4O3)C1)C2=O [example 22, 6-((S)-1-(((S)-2,3-Dihydrobenzo[b][1,4]dioxin-2-yl)methyl)piperidin-3-yl)-2-(methylthio)-6,7-dihydro-5H-pyrrolo[3,4-d]pyrimidin-5-one] | > 10 µM | > 449 nM | < 0.01 nM | < 0.001 nM
11 | O=c1[nH]c2c(F)cccc2n1[C@H]1CCCN(C[C@H]2COc3ccccc3O2)C1 [example 154, 1-((S)-1-(((S)-2,3-Dihydrobenzo[b][1,4]dioxin-2-yl)methyl)piperidin-3-yl)-4-fluoro-1H-benzo[d]imidazol-2(3H)-one] | > 10 µM | > 449 nM | < 0.1 nM | < 0.01 nM
12 | O=C1OC(c2ccc(F)cc2)CN1[C@H]1CCCN(C[C@H]2COc3ccccc3O2)C1 (stereo partly drawn) [example 21, 3-((S)-1-(((S)-2,3-Dihydrobenzo[b][1,4]dioxin-2-yl)methyl)piperidin-3-yl)-5-(4-fluorophenyl)oxazolidin-2-one] | 1.4 µM | 63 nM | 1.9 nM | 0.191 nM
13 | CN1CC(=O)N([C@H]2CCCN(C[C@H]3COc4ccccc4O3)C2)C1=O [example 103, 3-((S)-1-(((S)-2,3-Dihydrobenzo[b][1,4]dioxin-2-yl)methyl)piperidin-3-yl)-1-methylimidazolidine-2,4-dione] | > 10 µM | > 449 nM | 3.17 nM | 0.32 nM
14 | COc1cc2c(cc1OC)C(=O)N([C@H]1CCCN(C[C@H]3COc4ccccc4O3)C1)C2 [example 68, 2-((S)-1-(((S)-2,3-Dihydrobenzo[b][1,4]dioxin-2-yl)methyl)piperidin-3-yl)-5,6-dimethoxyisoindolin-1-one] | > 10 µM | > 449 nM | 2.79 nM | 0.282 nM
15 | CC(C)(C)C1CN([C@H]2CCCN(C[C@H]3COc4ccccc4O3)C2)C(=O)O1 (stereo partly drawn) [example 18, 5-tert-Butyl-3-((S)-1-(((S)-2,3-dihydrobenzo[b][1,4]dioxin-2-yl)methyl)piperidin-3-yl)oxazolidin-2-one] | 8.51 µM | 382 nM | 0.235 nM | 0.024 nM

The remaining lines, values ahead:

Row | IC50 (human alpha2A receptors) | Kb (human alpha2A receptors) | IC50 (human alpha2C receptors) | Kb (human alpha2C receptors) | Compound
16 | > 10 µM | > 449 nM | 20.8 nM | 2.09 nM | Cc1nc2c(F)cc(F)cc2n1[C@H]1CCCN(C[C@H]2COc3ccccc3O2)C1 [example 27, 1-((S)-1-(((S)-2,3-Dihydrobenzo[b][1,4]dioxin-2-yl)methyl)piperidin-3-yl)-4,6-difluoro-2-methyl-1H-benzo[d]imidazole]
17 | 6.86 µM | 308 nM | 0.02 nM | 0.002 nM | O=C1C2C3C=CC(C3)C2C(=O)N1[C@H]1CCCN(C[C@H]2COc3ccccc3O2)C1 (stereo partly drawn) [example 34, 2-((S)-1-(((S)-2,3-Dihydrobenzo[b][1,4]dioxin-2-yl)methyl)piperidin-3-yl)-3a,4,7,7a-tetrahydro-1H-4,7-methanoisoindole-1,3(2H)-dione]
18 | > 10 µM | > 449 nM | 3.78 nM | 0.379 nM | O=C1c2cccnc2CN1[C@H]1CCCN(C[C@H]2COc3ccccc3O2)C1 [example 10, 6-((S)-1-(((S)-2,3-Dihydrobenzo[b][1,4]dioxin-2-yl)methyl)piperidin-3-yl)-6,7-dihydro-5H-pyrrolo[3,4-b]pyridin-5-one]
19 | > 10 µM | > 449 nM | 1 nM | 0.1 nM | CC1CCN([C@H]2CCCN(C[C@H]3COc4ccccc4O3)C2)C1=O (stereo partly drawn) [example 97, 1-((S)-1-(((S)-2,3-Dihydrobenzo[b][1,4]dioxin-2-yl)methyl)-piperidin-3-yl)-3-methylpyrrolidin-2-one]
20 | 7.19 µM | 323 nM | 1050 nM | 105 nM | O=S1(=O)Nc2ccccc2N1[C@H]1CCCN(C[C@H]2COc3ccccc3O2)C1 [example 146, 1-((S)-1-(((S)-2,3-Dihydrobenzo[b][1,4]dioxin-2-yl)methyl)piperidin-3-yl)-1,3-dihydrobenzo[c][1,2,5]thiadiazole 2,2-dioxide]
21 | > 10 µM | > 449 nM | 256 nM | 25.8 nM | O=C1c2ncncc2CN1[C@H]1CCCN(C[C@H]2COc3ccccc3O2)C1 [example 78, 6-((S)-1-(((S)-2,3-Dihydrobenzo[b][1,4]dioxin-2-yl)methyl)piperidin-3-yl)-5H-pyrrolo[3,4-d]pyrimidin-7(6H)-one]
22 | 0.193 µM | 9 nM | < 0.01 nM |  | CC1(c2ccccc2)CC(=O)N([C@H]2CCCN(C[C@H]3COc4ccccc4O3)C2)C1=O (stereo partly drawn) [example 35, 1-((S)-1-(((S)-2,3-Dihydrobenzo[b][1,4]dioxin-2-yl)methyl)piperidin-3-yl)-3-methyl-3-phenylpyrrolidine-2,5-dione]
23 | > 10 µM | > 449 nM | 2.02 nM | 0.203 nM | CC1(C)CCN([C@H]2CCCN(C[C@H]3COc4ccccc4O3)C2)C1=O [example 100, 1-((S)-1-(((S)-2,3-Dihydrobenzo[b][1,4]dioxin-2-yl)methyl)piperidin-3-yl)-3,3-dimethylpyrrolidin-2-one]
